The values below are quoted from earlier work in patent publication US20090130675A1, “Genes Involved in the Biosynthesis of Thiocoraline and Heterologous Production of Same” (PHARMA MAR, S.A., priority 2005, published 2009).

Data set [1] deals with human carcinoma xenografts. The settings on record: in vivo, human carcinoma xenografts (Faircloth et al. 1997). A general note: Xenograft models place foreign cells or tissue in a host animal.
In data set [2] the test system is Gram-positive bacteria. The settings on record: against Gram-positive bacteria.
For data set [3], the system named is cell lines of different types of solid tumors, such as melanoma, breast, non-microcytic lung and colon cancer. To be noted: in vitro.

For Thiocoraline, in data set [1], the antitumor activity result is recorded as “marked antitumor activity”. The antibacterial activity entry in data set [2] is “shows antibacterial activity”. The “capacity to inhibit the growth of cell lines” value in data set [3] is given as “inhibit the growth of cell lines”.
